According to the supplement of paper PMC10307832:

Assays:
Experiment in all cases: relative viability (nuclei count vs DMSO), 5 days (fraction); higher = more cells survive
TGX 221 + Bortezomib = compound: CC1=CN2C(=O)C=C(N=C2C(=C1)C(C)NC3=CC=CC=C3)N4CCOCC4 [TGX 221] + CC(C)C[C@H](NC(=O)[C@H](Cc1ccccc1)NC(=O)c1cnccn1)B(O)O [Bortezomib] (partner 0.002 µM)
In short: (§1)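 Lung cancer cell lines in 1536-well plates were dosed by pin tool the day after seeding, either with one drug alone or with a fixed anchor-drug dose plus five library-drug doses (not always all listed) in √10 steps. After 5 days, cells were fixed and their nuclei stained in one step (final 0.05% Triton X-100, 1% formaldehyde, 1 ug/ml Hoechst), then counted on 4× images. Relative viability is the nuclei count in treated wells divided by that in vehicle wells. Values are medians of duplicate plates.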

TGX 221 + Tozasertib = compound: CC1=CN2C(=O)C=C(N=C2C(=C1)C(C)NC3=CC=CC=C3)N4CCOCC4 [TGX 221] + Cc1cc(Nc2cc(N3CCN(C)CC3)nc(Sc3ccc(NC(=O)C4CC4)cc3)n2)n[nH]1 [Tozasertib] (partner 0.1 µM)
In short: as §1

[1] = compound: O=C(CCCCCCNC(=O)c1cnc(N(c2ccccc2)c2ccccc2)nc1)NO [Ricolinostat] + CC1(C)CCC(c2ccc(Cl)cc2)=C(CN2CCN(c3ccc(C(=O)NS(=O)(=O)c4ccc(N[C@H](CCN5CCOCC5)CSc5ccccc5)c(S(=O)(=O)C(F)(F)F)c4)cc3)CC2)C1 [Navitoclax] (partner 0.5 µM)
In short: as §1

[2] = compound: O=C(CCCCCCNC(=O)c1cnc(N(c2ccccc2)c2ccccc2)nc1)NO [Ricolinostat] + Nc1nc2[nH]cc(CCc3ccc(C(=O)N[C@@H](CCC(=O)O)C(=O)O)cc3)c2c(=O)[nH]1 [Pemetrexed] (partner 0.2 µM)
In short: as §1

Row | Cell Line | relative viability (TGX 221 + Bortezomib; first compound 0.08 µM) | relative viability (TGX 221 + Bortezomib; first compound 0.253 µM) | relative viability (TGX 221 + Bortezomib; first compound 0.8 µM) | relative viability (TGX 221 + Bortezomib; first compound 2.53 µM) | relative viability (TGX 221 + Bortezomib; first compound 8 µM) | relative viability (TGX 221 + Tozasertib; first compound 0.08 µM) | relative viability (TGX 221 + Tozasertib; first compound 0.253 µM) | relative viability (TGX 221 + Tozasertib; first compound 0.8 µM) | relative viability (TGX 221 + Tozasertib; first compound 2.53 µM) | relative viability (TGX 221 + Tozasertib; first compound 8 µM) | relative viability ([1]; first compound 0.08 µM) | relative viability ([1]; first compound 0.253 µM) | relative viability ([1]; first compound 0.8 µM) | relative viability ([1]; first compound 2.53 µM) | relative viability ([2]; first compound 0.08 µM) | relative viability ([2]; first compound 0.253 µM) | relative viability ([2]; first compound 0.8 µM) | relative viability ([2]; first compound 2.53 µM)
1 | HCC-827 | 0.981 | 1.06 | 1.07 | 1.17 | 1.07 | 0.414 | 0.436 | 0.424 | 0.401 | 0.349 | 0.95 | 1.02 | 1.01 | 0.909 | 0.23 | 0.256 | 0.232 | 0.212
2 | HOP-62 | 0.605 | 0.85 | 0.788 | 0.847 | 0.93 | 0.372 | 0.416 | 0.34 | 0.387 | 0.316 | 0.887 | 1.01 | 1.03 | 1.08 | 0.304 | 0.28 | 0.337 | 0.319
3 | IA-LM | 0.915 | 1.02 | 1.04 | 0.869 | 0.735 |  |  |  |  |  | 0.802 | 0.626 | 0.747 | 0.603 |  |  |  | 
4 | LC-2-ad | 0.978 |  | 1.07 | 1.05 | 0.928 | 0.451 | 0.479 | 0.454 | 0.402 | 0.396 | 0.535 | 0.485 | 0.506 | 0.334 | 0.32 | 0.272 | 0.28 | 0.269
5 | LCLC-97TM1 | 0.586 | 0.421 | 0.504 | 0.736 | 0.405 | 0.214 | 0.179 | 0.191 | 0.239 | 0.143 | 0.41 | 0.431 | 0.485 | 0.357 | 0.152 | 0.157 | 0.137 | 0.157
6 | LCLC-103H | 0.999 | 1.12 | 0.981 | 1.01 | 1.06 | 0.409 | 0.466 | 0.465 | 0.434 | 0.354 |  |  |  |  | 0.488 | 0.463 | 0.476 | 0.516
7 | LK-2 |  |  |  |  |  | 0.203 | 0.202 | 0.182 | 0.187 | 0.161 | 0.841 | 0.898 | 0.811 | 0.842 | 0.217 | 0.256 | 0.231 | 0.216
8 | LOU-NH91 | 0.492 | 0.52 | 0.514 | 0.381 | 0.51 | 0.713 | 0.653 | 0.697 | 0.675 | 0.562 |  | 0.777 | 0.642 | 0.6 |  | 0.327 | 0.378 | 0.367
9 | LU99A | 1.06 | 0.887 | 1.04 | 1.04 | 1.09 | 0.24 | 0.274 | 0.258 | 0.282 | 0.276 | 0.782 | 0.701 | 0.603 | 0.491 | 0.188 | 0.159 | 0.184 | 0.156
10 | NCI-H358 |  |  |  |  |  | 0.097 | 0.0915 | 0.103 | 0.108 | 0.0944 |  |  |  |  | 0.179 | 0.194 | 0.183 | 0.156
11 | NCI-H522 |  |  |  |  |  | 0.52 | 0.559 | 0.575 | 0.502 | 0.513 |  |  |  |  | 0.972 | 1.03 | 1.05 | 0.924
12 | NCI-H650 | 0.697 | 0.748 | 0.721 | 0.639 | 0.791 | 0.665 | 0.639 | 0.665 | 0.712 | 0.596 |  |  |  |  | 0.643 | 0.912 | 0.861 | 0.734
13 | NCI-H661 | 0.689 | 0.59 | 0.75 | 0.677 | 0.668 | 0.348 | 0.371 | 0.392 | 0.358 | 0.373 |  |  |  |  | 0.832 | 0.879 | 0.9 | 0.776
14 | NCI-H727 | 0.827 | 0.829 | 1.03 | 0.737 | 0.893 | 0.543 | 0.64 | 0.65 | 0.571 | 0.542 | 0.356 | 0.55 | 0.397 | 0.405 |  |  |  | 
15 | NCI-H1299 | 0.985 | 1 | 0.989 | 1.03 | 0.948 |  |  |  |  |  | 0.987 | 0.987 | 1.02 | 1.01 |  |  |  | 
16 | NCI-H1395 |  |  |  |  |  | 0.712 | 0.697 | 0.713 | 0.603 | 0.569 |  | 1.13 | 1.32 | 1.27 |  | 0.801 | 0.804 | 0.746
17 | NCI-H1563 | 0.925 | 0.783 | 0.795 | 0.719 | 0.687 |  |  |  |  |  |  |  |  |  | 0.788 | 0.767 | 0.74 | 0.726
18 | NCI-H1623 |  |  |  |  |  | 0.446 | 0.404 | 0.472 | 0.466 | 0.419 |  |  |  |  |  |  |  | 
19 | NCI-H1648 |  |  |  |  |  | 0.422 |  | 0.563 | 0.406 | 0.45 |  |  |  |  |  | 0.596 | 0.629 | 0.521
20 | NCI-H1703 | 0.244 | 0.323 | 0.305 | 0.234 | 0.281 |  |  |  |  |  |  | 0.978 | 1.05 | 1.54 |  |  |  | 
21 | NCI-H1793 |  |  |  |  |  | 0.311 | 0.239 | 0.244 | 0.16 | 0.166 |  | 0.547 | 0.499 | 0.853 | 0.603 | 0.76 | 0.815 | 0.811
22 | NCI-H1944 |  |  |  |  |  | 0.237 | 0.223 | 0.241 | 0.244 | 0.2 | 0.993 | 0.972 | 1.04 | 0.901 | 0.565 | 0.588 | 0.565 | 0.39
23 | NCI-H2170 |  |  |  |  |  | 0.658 | 0.666 | 0.626 | 0.731 | 0.67 | 0.607 | 0.495 | 0.633 | 0.662 | 0.247 | 0.242 | 0.281 | 0.244
24 | NCI-H2342 |  |  |  |  |  | 0.422 | 0.484 | 0.6 | 0.547 | 0.447 |  |  |  |  | 0.734 | 0.785 | 0.719 | 0.637
25 | SK-MES-1 |  |  |  |  |  | 0.897 | 0.992 | 0.916 | 0.957 | 0.796 | 1.07 | 1.22 | 1.21 | 1.23 | 0.878 | 0.982 | 0.876 | 0.91
26 | SW 900 |  |  |  |  |  | 0.657 | 0.749 | 0.824 | 0.636 | 0.453 |  |  |  |  | 0.496 | 0.488 | 0.491 | 0.441
